Results from BindingDB's records for doi:10.3109/14756366.2012.681650 (East China University of Science and Technology, 2013).
“And” between values parts separate entries of the source, which are not always exact repeats. Identical values can stand only once.

These compounds were tested against T1, Interstitial collagenase [100-268] (Homo sapiens, UniProt P03956) (assay: cd-MMP-1 Activity Assay). Conditions: pH 7.5.
T1 construct: 100-268
T1 sequence (P03956 whole entry): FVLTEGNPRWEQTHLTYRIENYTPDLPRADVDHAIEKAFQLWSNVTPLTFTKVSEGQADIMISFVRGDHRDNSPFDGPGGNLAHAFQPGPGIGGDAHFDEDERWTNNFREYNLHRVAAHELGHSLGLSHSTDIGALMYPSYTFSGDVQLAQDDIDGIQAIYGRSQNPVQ
Experimental: The activity of cd-MMP-1 was measured using a fluorescence-based assay. It was performed in white 96-well half area microplate (Greiner) in a final volume of 100 μL. […] The reaction was initiated by the addition of 50 μl of quenched fluorogenic peptide substrate: Dnp-Pro-beta-cyclohexyl-Ala-Gly-Cys(Me)-His-Ala-Lys(Nma)-NH2 (final concentration 5 μM). The cd-MMP-1 activity was determined in an Synergy™ 2 Multi-Mode Microplate Reader(BioTek) at an excitation wavelength of 360 nm and an emission wavelength of 460 nm.

IC50 | Compound
0.01 µM | CNC(=O)C(CCc1ccccc1)NC(=O)C(CC(=O)NO)CC(C)C (stereo unspecified)
1.35 µM and 3.92 µM | O=c1c(O)c(-c2ccc(O)cc2)oc2cc(O)cc(O)c12
0.013 µM | COc1ccc(S(=O)(=O)N2CC(C)(C)CN(S(=O)(=O)c3ccc(OC)cc3)C2C(=O)NO)cc1 [1,3-BIS-(4-METHOXY-BENZENESULFONYL)-5,5-DIMETHYL-HEXAHYDRO-PYRIMIDINE-2-CARBOXYLIC ACID HYDROXYAMIDE]
4.85 µM | O=c1c(O)c(-c2ccc(O)cc2O)oc2cc(O)cc(O)c12 [2-(2,4-dihydroxyphenyl)-3,5,7-trihydroxychromen-4-one]

Compound | IC50
O=c1c(O)c(-c2cc(O)c(O)c(O)c2)oc2cc(O)cc(O)c12 | 2.92 µM
O=c1cc(-c2ccc(O)c(O)c2)oc2cc(O)cc(O)c12 [2-(3,4-dihydroxyphenyl)-5,7-dihydroxy-4H-chromen-4-one] | 3.03 µM
